Source: patent publication US20110143999A1, “FOWLICIDINS AND METHODS OF ITS USE” (priority 2005, published 2011)
Converted amounts (≈) assume the structure as drawn. Read-outs that look alike come from different tables or passages of the source. Residues, ends and D or L forms follow the SMILES beside them.

Legend:
[1] = system: three Gram-negative and four Gram-positive bacteria; details: Example 3; 20% TSB, 25 mM NaHCO3, 1 mM NaH2PO4, with or without 100 mM NaCl
E. coli ATCC 25922 [2] = system: E. coli ATCC 25922
[3] = system: E. coli O157:H7 ATCC 700728; details: 1% MHB
[4] = system: S. typhimurium DT104 ATCC 700408
K. pneumoniae ATCC 13883 [5] = system: K. pneumoniae ATCC 13883
S. aureus ATCC 25923 [6] = system: S. aureus ATCC 25923
[7] = system: S. aureus (MRSA) ATCC BAA-39
LPS from E. coli O111:B4 = assay: LPS binding assay (chromogenic Limulus amebocyte lysate); details: Table V; 50% inhibition of LPS-mediated procoagulant activation
[8] = system: S. typhimurium ATCC 14028
[9] = system: L. monocytogenes ATCC 19115; assay: Modified broth microdilution assay (1% MHB); details: Table V, Example 2, listed as fowlicidin-1-K^7L^12K^14L^16K^18
MDCK cells [10] = system: MDCK cells
E. coli ATCC 25922 [11] = system: E. coli ATCC 25922; remark: listed apart in the source
[12] = system: S. typhimurium ATCC 14028; remark: listed apart in the source
[13] = system: S. enteritidis ATCC 13076
K. pneumoniae ATCC 13883 [14] = system: K. pneumoniae ATCC 13883; remark: listed apart in the source
[15] = system: S. typhimurium DT104 ATCC 700408; remark: listed apart in the source
[16] = system: L. monocytogenes ATCC 19115
S. aureus ATCC 25923 [17] = system: S. aureus ATCC 25923; remark: listed apart in the source
[18] = system: S. aureus (MRSA) ATCC 43300
[19] = system: S. aureus (MRSA) ATCC BAA-39; remark: listed apart in the source
[20] = system: Gram-negative and Gram-positive bacteria; details: Example 4, summary of Table VII
MDCK cells [21] = assay: Cytotoxicity assay (alamarBlue)

Compound: CC[C@H](C)[C@H](NC(=O)[C@@H](NC(=O)[C@@H](NC(=O)[C@@H](NC(=O)[C@@H](NC(=O)[C@H](CCCCN)NC(=O)[C@@H]1CCCN1)C(C)C)[C@@H](C)O)[C@@H](C)CC)[C@@H](C)O)C(=O)N[C@@H](CCC(N)=O)C(=O)NCC(=O)N[C@@H](CO)C(=O)N[C@@H](C)C(=O)N[C@@H](CCCNC(=N)N)C(=O)N[C@@H](Cc1ccccc1)C(=O)O [Fowl-2(19-31)] (H-PKVTITIQGSARF-OH; N-terminus and C-terminus assumed)
- MIC (range over bacteria tested) [1]: > 32 µM

Compound: CC[C@H](C)[C@H](NC(=O)[C@H](CCCCN)NC(=O)[C@H](CCCNC(=N)N)NC(=O)[C@H](CC(C)C)NC(=O)[C@H](Cc1ccccc1)NC(=O)[C@H](CCCNC(=N)N)NC(=O)CNC(=O)[C@H](Cc1ccccc1)NC(=O)[C@H](CCCNC(=N)N)NC(=O)CNC(=O)[C@H](CCCNC(=N)N)NC(=O)[C@H](CCC(N)=O)NC(=O)[C@@H](NC(=O)[C@@H](N)CC(C)C)C(C)C)C(=O)N[C@@H](CCCNC(=N)N)C(=O)N[C@@H](CCCNC(=N)N)C(=O)N[C@@H](Cc1ccccc1)C(=O)N[C@@H](CCCNC(=N)N)C(=O)N1CCC[C@H]1C(=O)N[C@@H](CCCCN)C(=O)N[C@H](C(=O)N[C@H](C(=O)N[C@H](C(=O)N[C@H](C(=O)N[C@H](C(=O)N[C@@H](CCC(N)=O)C(=O)NCC(=O)N[C@@H](CO)C(=O)N[C@@H](C)C(=O)N[C@@H](CCCNC(=N)N)C(=O)N[C@@H](Cc1ccccc1)C(=O)O)[C@@H](C)CC)[C@@H](C)O)[C@@H](C)CC)[C@@H](C)O)C(C)C [Fowlicidin-2] (H-LVQRGRFGRFLRKIRRFRPKVTITIQGSARF-OH; N-terminus and C-terminus assumed)
- MIC (E. coli ATCC 25922 [2]): 2.66 µM (≈ 10 µg/mL)
- MIC ([3]; NaCl 0 mM): 0.66 µM (≈ 2.48 µg/mL)
- MIC ([3]; NaCl 100 mM): 1.33 µM (≈ 5 µg/mL)
- MIC [4]: 0.66 µM (≈ 2.48 µg/mL)
- MIC (K. pneumoniae ATCC 13883 [5]): 0.66 µM (≈ 2.48 µg/mL)
- MIC (S. aureus ATCC 25923 [6]): 0.66 µM (≈ 2.48 µg/mL)
- MIC [7]: 0.66 µM (≈ 2.48 µg/mL)
- MIC (range over bacteria tested) [1]: 0.5 to 2 µM

Compound: CC[C@H](C)[C@H](NC(=O)[C@H](C)NC(=O)[C@H](CCCNC(=N)N)NC(=O)[C@H](Cc1ccc(O)cc1)NC(=O)[C@H](CC(C)C)NC(=O)[C@H](CCCCN)NC(=O)[C@H](Cc1ccc(O)cc1)NC(=O)[C@H](CC(C)C)NC(=O)[C@H](C)NC(=O)[C@H](CCCCN)NC(=O)[C@@H](NC(=O)[C@H](CC(C)C)NC(=O)[C@H](CCCNC(=N)N)NC(=O)[C@@H](NC(=O)[C@@H](NC(=O)[C@H](CC(C)C)NC(=O)[C@H](CCCCN)NC(=O)[C@H](Cc1c[nH]c2ccccc12)NC(=O)[C@@H](NC(=O)[C@H](CCCNC(=N)N)NC(=O)[C@H](CCCCN)NC(=O)[C@@H](NC(=O)[C@@H](N)CCCNC(=N)N)C(C)C)C(C)C)C(C)C)[C@@H](C)CC)C(C)C)C(=O)N[C@@H](CCCCN)C(=O)N[C@@H](CCCCN)C(=O)N[C@@H](CCCCN)C(=O)O [Fowl-1-KLKLK] (H-RVKRVWKLVIRLVKALYKLYRAIKKK-OH; N-terminus assumed)
- EC50 (LPS from E. coli O111:B4): 6 µM
- EC50: 11 µM
- Antibacterial Activity (MIC, μM) E. coli (E. coli ATCC 25922 [2]; Table V, Example 2, 1% MHB, listed as fowlicidin-1-K^7L^12K^14L^16K^18): > 7.6 µM
- Antibacterial Activity (MIC, μM) Salmonella [8]: 1.9 µM
- Antibacterial Activity (MIC, μM) S. aureus (S. aureus ATCC 25923 [6]): 1.9 µM
- Antibacterial Activity (MIC, μM) Listeria [9]: > 7.6 µM

Compound: CC[C@H](C)[C@H](NC(=O)CNC(=O)[C@H](C)NC(=O)[C@H](C)NC(=O)[C@@H](NC(=O)[C@@H](NC(=O)[C@H](CC(N)=O)NC(=O)[C@@H](NC(=O)[C@H](C)NC(=O)[C@@H](NC(=O)[C@@H]1CCCN1C(=O)[C@@H](NC(=O)[C@H](CC(C)C)NC(=O)[C@@H]1CCCN1C(=O)[C@H](Cc1c[nH]c2ccccc12)NC(=O)[C@H](Cc1ccccc1)NC(=O)[C@H](CCCNC(=N)N)NC(=O)[C@@H](N)CCCCN)C(C)C)C(C)C)[C@@H](C)CC)[C@@H](C)O)C(C)C)C(=O)N[C@@H](CC(N)=O)C(=O)N[C@@H](CC(C)C)C(=O)N[C@@H](Cc1ccc(O)cc1)C(=O)N[C@@H](CCCCN)C(=O)N[C@@H](C)C(=O)N[C@H](C(=O)N[C@@H](CCCNC(=N)N)C(=O)N[C@@H](CCCNC(=N)N)C(=O)N[C@@H](CCCCN)C(=O)O)[C@@H](C)CC [Fowlicidin-3] (H-KRFWPLVPVAINTVAAGINLYKAIRRK-OH; N-terminus and C-terminus assumed)
- fold reduction in toxicity in the presence of 10% FBS (MDCK cells [10]): 2 fold
- MIC (E. coli ATCC 25922 [11]): 2 µM (≈ 6.19 µg/mL)
- MIC [12]: 2 µM (≈ 6.19 µg/mL)
- MIC [13]: 2 µM (≈ 6.19 µg/mL)
- MIC (K. pneumoniae ATCC 13883 [14]): 1 µM (≈ 3.1 µg/mL)
- MIC [15]: 2 µM (≈ 6.19 µg/mL)
- MIC [16]: 2 µM (≈ 6.19 µg/mL)
- MIC (S. aureus ATCC 25923 [17]): 1 µM (≈ 3.1 µg/mL)
- MIC [18]: 1 µM (≈ 3.1 µg/mL)
- MIC [19]: 1 µM (≈ 3.1 µg/mL)
- MICs (range over bacteria tested) [20]: 1 to 2 µM
- cytotoxicity (EC50) fold higher than MICs (MDCK cells [21]; in the presence of serum, against all bacterial strains tested): 10-to 40 fold
- EC50 (MDCK cells [21]; read-out: 50% effective concentration (EC50), MDCK cell killing, Example 4, without serum, FIG. 20A): 12 µM
